Measurements published in paper PMC6753678, “Fueling Open Innovation for Malaria Transmission-Blocking Drugs: Hundreds of Molecules Targeting Early Parasite Mosquito Stages” (Frontiers in Microbiology, 2019).

System: P. berghei ookinete development
Conditions: for % inhibition, Replicate A / % inhibition, Replicate B: primary screen at 1 μM; for IC50: read-out: Pb Ookinete development assay IC50, dose response confirmation

Compound	% inhibition, Replicate A [%]	% inhibition, Replicate B [%]	IC50 [µM]
COc1ccc(-c2cc(C(=O)Nc3ccc4[nH]c(-c5ccccc5)nc4c3)[nH]n2)cc1.O=C(O)C(F)(F)F [TCMDC-134399]	46.43	56.04	
Cc1cc(CNCCCCCCNCc2ccc(Cl)cc2)ccc1O [TCMDC-140414]	6.85	50.55	
COc1ccc2nccc(N3CCC(NCCNCc4ccc5c(n4)NC(=O)CS5)C3)c2n1.Cl (stereo not shown) [TCMDC-134649]	18.73	51.52	
COc1cc(-c2cnc(N)c(-c3nc4ccccc4[nH]3)c2)cc(OC)c1OC.Cl [TCMDC-138793]	57.35	34.54	
Cl.Nc1nc(N)c2c(ccc3nn(Cc4cccnc4)cc32)n1 [TCMDC-137968]	30.53	62.42	
Cl.O=C(CC1CCCC1)N(CC1CCN(Cc2ccc(C(F)(F)F)cc2)CC1)c1ccc(N2CCOCC2)c(F)c1 [TCMDC-135855]	65.53	32.88	
Cc1nc2ccc(-c3ccc(OC(F)(F)F)cc3)cc2c(O)c1C#N [TCMDC-136129]	117.05	93.07	
Cc1c(CNCCCNc2cc(=O)c3ccccc3[nH]2)sc(-c2ccco2)c1Br.Cl [TCMDC-141065]	4.54	52.38	
Cc1[nH]c(C)c(-c2cccc(-c3ccc(OC(F)(F)F)cc3)c2)c(=O)c1Br [TCMDC-135303]	52.85	65.81	
CCCC(CC)n1ccc2c3c(N)nc(N)nc3ccc21.CS(=O)(=O)O (stereo not shown) [TCMDC-137948]	49.24	73.56	
COc1ccccc1CCNc1nc(C)cc(N[C@@H](Cc2ccccc2)C(=O)Nc2ccccc2)n1.O=C(O)C(F)(F)F [TCMDC-134804]	57.50	38.80	
O=C(NCc1cccs1)[C@H](Cc1ccccc1)Nc1ccnc(NCC2CCCCC2)n1.O=C(O)C(F)(F)F [TCMDC-134708]	21.89	53.00	
CCOC(=O)c1cn(CC)c2cc(N3CCCCCC3)c(F)cc2c1=O [TCMDC-124160]	101.92	113.32	
Cc1nc2ccccc2c(O)c1-c1ccc(Cl)cc1 [TCMDC-137172]	27.10	52.76	
CC(C)Oc1ccc2c(c1)OC(c1ccccc1)(C(F)(F)F)NC2=O (stereo not shown) [TCMDC-123633]	24.49	54.58	
CCN(CC)CCN(Cc1ccc(-c2ccc(C(F)(F)F)cc2)cc1)C(=O)Cn1cc(CCCCc2cccc(F)c2F)c(=O)c2ccccc21.O=C(O)C(O)C(O)C(=O)O [TCMDC-141340]	60.00	20.87	
Cn1ncc2ccc(Nc3nccc(-c4ccc5c(c4)c(N)nn5C)n3)cc21 [TCMDC-137049]	55.92	51.61	
CC1Cc2ccccc2N1S(=O)(=O)c1cc(OCC(F)(F)F)ccc1OCC(F)(F)F (stereo not shown) [TCMDC-124044]	52.34	21.81	
Nc1ncnc2cc(-c3cccc(S(N)(=O)=O)c3)sc12 [TCMDC-135294]	103.63	97.06	
Cc1cc2c3c(N)nc(N)nc3ccc2n1C [TCMDC-137957]	66.89	77.62	
Cc1[nH]c(C)c(-c2ccc(Oc3cccc(Cl)c3)cc2)c(=O)c1Cl [TCMDC-137395]	115.83	119.38	
Cl.O=C(CNC1CCCCC1)c1ccc(O)c(O)c1 [TCMDC-123961]	31.52	68.95	
COc1ccc2c(=O)c(-c3ccc(OC(F)(F)F)cc3)c(C)[nH]c2c1 [TCMDC-138811]	34.78	69.73	
COc1ccc(O)c(Cc2cnc3nc(N)nc(N)c3c2C)c1.O=C(O)C(F)(F)F [TCMDC-137998]	11.48	55.44	
CS(=O)(=O)NCCCNCc1cccc(-c2ccc(-c3nc4ccccc4[nH]3)s2)c1.O=C(O)C(F)(F)F [TCMDC-133088]	41.67	56.04	

Compound	% inhibition, Replicate A [%]	% inhibition, Replicate B [%]	IC50 [µM]
COc1cc(OC)cc(-c2nn(-c3ccc([N+](=O)[O-])cc3C#N)c(=S)n2CC2CCCO2)c1 (stereo not shown) [TCMDC-134716]	44.85	53.94	5.46
Cc1[nH]c(C)c(-c2ccc(S(=O)(=O)c3ccc(Cl)cc3)cc2)c(=O)c1Cl [TCMDC-137412]	78.54	115.81	
O=C(N[C@H]1CCN(CCc2ccc(O[C@H]3CCNC3)cc2)C1)c1ccc(Cl)c(Cl)c1.O=C(O)C(F)(F)F [TCMDC-141066]	57.79	22.51	
CNCCN(C)C(=O)Oc1c(Cl)c(C)nc(C)c1-c1ccc(Oc2ccc(OC(F)(F)F)cc2)cc1.Cl [TCMDC-137384]	31.42	56.87	
O=C(Nc1ccc(Cl)cc1)N(CC1CC2CCC(C1)N2Cc1ccc(C(F)(F)F)cc1)c1ccc(N2CCOCC2)c(F)c1 (stereo not shown) [TCMDC-135859]	55.58	25.24	
Cc1nc(SCC(=O)N2CCCC2=O)c2c(C)c(C)sc2n1 [TCMDC-123558]	50.04	22.22	
N#Cc1cc([N+](=O)[O-])ccc1-n1nc(-c2cccc(Cl)c2)n(Cc2ccco2)c1=S [TCMDC-134717]	64.43	77.59	
Br.CCc1ccccc1OCCCON1C(=N)N=C(N)NC1(C)C [TCMDC-131305]	58.24	46.89	
CC(C)c1cccc(C(C)C)c1NC(=O)NNC(=O)c1ccc(CCN2CCC(c3nc(COCC(F)(F)F)c(-c4ccc(F)cc4)o3)CC2)cc1 [TCMDC-131908]	61.66	23.60	
N=C1NC(=N)N(OCCCCCCON2C(=N)NC(=N)NC2C=Cc2ccccc2)C(C=Cc2ccccc2)N1 (stereo not shown) [TCMDC-131602]	52.81	32.33	
CC(C)(C)c1ccc(Cc2cccc3nc(N)nc(N)c23)cc1 [TCMDC-137821]	61.67	24.79	
O=C(/C=C/c1ccc(Cl)c(Cl)c1)NCCCCCN1CCCN(C(=O)Nc2cc(Cl)nc(Cl)c2)CC1 [TCMDC-135888]	61.66	48.73	
Cc1[nH]cc(Br)c(=O)c1-c1ccc(Oc2ccc(OC(F)(F)F)cc2)cc1 [TCMDC-136197]	35.07	51.32	
CC(C)n1ncc2c3c(N)nc(N)nc3ccc21 [TCMDC-137866]	87.47	39.71	
C=CCc1cc(Cc2cnc(N)nc2N)cc(CCC)c1OC [TCMDC-138039]	8.79	53.34	
CC(C)n1c(C(C)(C)C)cc2c3c(N)nc(N)nc3ccc21 [TCMDC-137311]	95.58	90.85	0.634
Cc1cccc2nc(-c3ccc(-c4cccc(CN5CCCC(N)C5)c4)s3)[nH]c12.O=C(O)C(F)(F)F (stereo not shown) [TCMDC-133874]	50.71	12.43	
COc1cc(Cc2cnc(N)nc2N)ccc1OCc1ccc(-c2csnn2)cc1 [TCMDC-138683]	55.66	28.96	
CC=Cc1cc(Cc2c[nH]c(=N)[nH]c2=N)cc(CCC)c1OC [TCMDC-137634]	54.07	40.96	
CCc1cc2c3c(N)nc(N)nc3ccc2n1C(CC)CC [TCMDC-137309]	48.79	56.84	
Cc1nc(C)c(-c2ccc(C(=O)c3ccccc3)cc2)c(O)c1Br [TCMDC-137419]	112.31	126.66	
Cc1cc(-c2ccc(NC(=O)Nc3ccc4nccc(N5CCN(C)CC5)c4c3)cc2C)cc(C)n1.Cl [TCMDC-139355]	53.36	17.60	
CCN(CC)CCCC(C)Nc1c2ccc(Cl)cc2nc2ccc(OC)cc12.Cl.O (stereo not shown) [TCMDC-125480]	33.29	58.69	
Cl.N=C(N)NN=Cc1c2ccccc2c(Cl)c2c(Cl)cccc12 [TCMDC-137898]	66.37	24.36	
